Read-outs that look alike come from different tables or passages of the source.
Key:
Type in all cases: binding
[1] = biological target: T1, HeLa cell extract proteins (Homo sapiens, UniProt P49748)
T1 construct: endogenous in cells; host or cells: HeLa cell extract
T1 sequence (P49748 41-655): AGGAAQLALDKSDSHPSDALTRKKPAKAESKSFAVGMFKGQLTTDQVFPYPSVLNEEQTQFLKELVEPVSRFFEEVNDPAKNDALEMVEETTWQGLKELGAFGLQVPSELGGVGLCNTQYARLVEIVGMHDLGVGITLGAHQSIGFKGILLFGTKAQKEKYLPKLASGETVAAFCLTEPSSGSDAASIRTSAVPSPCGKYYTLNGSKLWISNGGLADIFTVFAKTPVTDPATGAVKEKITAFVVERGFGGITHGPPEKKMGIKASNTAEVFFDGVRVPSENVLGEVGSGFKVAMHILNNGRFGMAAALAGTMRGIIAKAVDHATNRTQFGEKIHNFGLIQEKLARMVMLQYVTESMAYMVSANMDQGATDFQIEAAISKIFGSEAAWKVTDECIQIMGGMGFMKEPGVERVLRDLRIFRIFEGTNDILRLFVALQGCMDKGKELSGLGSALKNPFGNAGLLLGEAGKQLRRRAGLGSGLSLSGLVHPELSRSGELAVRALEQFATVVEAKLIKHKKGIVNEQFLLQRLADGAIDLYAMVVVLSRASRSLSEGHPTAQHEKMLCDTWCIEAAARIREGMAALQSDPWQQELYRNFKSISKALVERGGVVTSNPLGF

[2] = biological target: T2, HeLa cell extract proteins (Homo sapiens, UniProt P24863)
T2 construct: endogenous in cells; host or cells: HeLa cell extract
T2 sequence (P24863 1-283): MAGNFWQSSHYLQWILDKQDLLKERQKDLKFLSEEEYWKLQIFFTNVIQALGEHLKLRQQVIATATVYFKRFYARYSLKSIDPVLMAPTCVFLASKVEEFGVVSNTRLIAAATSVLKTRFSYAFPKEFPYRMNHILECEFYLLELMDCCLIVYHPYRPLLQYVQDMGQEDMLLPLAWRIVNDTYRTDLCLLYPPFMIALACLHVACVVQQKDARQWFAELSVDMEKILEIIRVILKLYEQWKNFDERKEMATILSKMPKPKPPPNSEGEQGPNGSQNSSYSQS

[3] = biological target: T3, HeLa cell extract proteins (Homo sapiens, UniProt P53611)
T3 construct: endogenous in cells; host or cells: HeLa cell extract
T3 sequence (P53611 1-331): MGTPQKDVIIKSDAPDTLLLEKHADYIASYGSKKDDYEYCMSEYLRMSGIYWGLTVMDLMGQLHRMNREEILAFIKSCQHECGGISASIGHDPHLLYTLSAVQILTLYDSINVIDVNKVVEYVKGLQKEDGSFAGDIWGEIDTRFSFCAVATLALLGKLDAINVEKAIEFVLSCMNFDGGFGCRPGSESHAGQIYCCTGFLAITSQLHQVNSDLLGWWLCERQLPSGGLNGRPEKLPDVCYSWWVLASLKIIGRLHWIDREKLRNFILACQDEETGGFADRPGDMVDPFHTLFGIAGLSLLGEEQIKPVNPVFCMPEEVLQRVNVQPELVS

[4] = biological target: T4, HeLa cell extract proteins (Homo sapiens, UniProt O15162)
T4 construct: endogenous in cells; host or cells: HeLa cell extract
T4 sequence (O15162 1-318): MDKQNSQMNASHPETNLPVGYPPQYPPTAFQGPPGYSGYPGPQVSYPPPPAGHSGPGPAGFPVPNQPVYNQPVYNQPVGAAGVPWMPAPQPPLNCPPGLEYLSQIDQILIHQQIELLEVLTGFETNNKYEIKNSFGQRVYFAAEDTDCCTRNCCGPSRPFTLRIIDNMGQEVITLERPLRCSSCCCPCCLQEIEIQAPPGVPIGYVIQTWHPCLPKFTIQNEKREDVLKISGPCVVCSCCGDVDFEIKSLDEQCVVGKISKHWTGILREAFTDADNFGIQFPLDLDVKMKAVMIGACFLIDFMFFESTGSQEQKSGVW

[5] = biological target: T5, HeLa cell extract proteins (Homo sapiens, UniProt O94822)
T5 construct: endogenous in cells; host or cells: HeLa cell extract
T5 sequence (O94822 whole entry): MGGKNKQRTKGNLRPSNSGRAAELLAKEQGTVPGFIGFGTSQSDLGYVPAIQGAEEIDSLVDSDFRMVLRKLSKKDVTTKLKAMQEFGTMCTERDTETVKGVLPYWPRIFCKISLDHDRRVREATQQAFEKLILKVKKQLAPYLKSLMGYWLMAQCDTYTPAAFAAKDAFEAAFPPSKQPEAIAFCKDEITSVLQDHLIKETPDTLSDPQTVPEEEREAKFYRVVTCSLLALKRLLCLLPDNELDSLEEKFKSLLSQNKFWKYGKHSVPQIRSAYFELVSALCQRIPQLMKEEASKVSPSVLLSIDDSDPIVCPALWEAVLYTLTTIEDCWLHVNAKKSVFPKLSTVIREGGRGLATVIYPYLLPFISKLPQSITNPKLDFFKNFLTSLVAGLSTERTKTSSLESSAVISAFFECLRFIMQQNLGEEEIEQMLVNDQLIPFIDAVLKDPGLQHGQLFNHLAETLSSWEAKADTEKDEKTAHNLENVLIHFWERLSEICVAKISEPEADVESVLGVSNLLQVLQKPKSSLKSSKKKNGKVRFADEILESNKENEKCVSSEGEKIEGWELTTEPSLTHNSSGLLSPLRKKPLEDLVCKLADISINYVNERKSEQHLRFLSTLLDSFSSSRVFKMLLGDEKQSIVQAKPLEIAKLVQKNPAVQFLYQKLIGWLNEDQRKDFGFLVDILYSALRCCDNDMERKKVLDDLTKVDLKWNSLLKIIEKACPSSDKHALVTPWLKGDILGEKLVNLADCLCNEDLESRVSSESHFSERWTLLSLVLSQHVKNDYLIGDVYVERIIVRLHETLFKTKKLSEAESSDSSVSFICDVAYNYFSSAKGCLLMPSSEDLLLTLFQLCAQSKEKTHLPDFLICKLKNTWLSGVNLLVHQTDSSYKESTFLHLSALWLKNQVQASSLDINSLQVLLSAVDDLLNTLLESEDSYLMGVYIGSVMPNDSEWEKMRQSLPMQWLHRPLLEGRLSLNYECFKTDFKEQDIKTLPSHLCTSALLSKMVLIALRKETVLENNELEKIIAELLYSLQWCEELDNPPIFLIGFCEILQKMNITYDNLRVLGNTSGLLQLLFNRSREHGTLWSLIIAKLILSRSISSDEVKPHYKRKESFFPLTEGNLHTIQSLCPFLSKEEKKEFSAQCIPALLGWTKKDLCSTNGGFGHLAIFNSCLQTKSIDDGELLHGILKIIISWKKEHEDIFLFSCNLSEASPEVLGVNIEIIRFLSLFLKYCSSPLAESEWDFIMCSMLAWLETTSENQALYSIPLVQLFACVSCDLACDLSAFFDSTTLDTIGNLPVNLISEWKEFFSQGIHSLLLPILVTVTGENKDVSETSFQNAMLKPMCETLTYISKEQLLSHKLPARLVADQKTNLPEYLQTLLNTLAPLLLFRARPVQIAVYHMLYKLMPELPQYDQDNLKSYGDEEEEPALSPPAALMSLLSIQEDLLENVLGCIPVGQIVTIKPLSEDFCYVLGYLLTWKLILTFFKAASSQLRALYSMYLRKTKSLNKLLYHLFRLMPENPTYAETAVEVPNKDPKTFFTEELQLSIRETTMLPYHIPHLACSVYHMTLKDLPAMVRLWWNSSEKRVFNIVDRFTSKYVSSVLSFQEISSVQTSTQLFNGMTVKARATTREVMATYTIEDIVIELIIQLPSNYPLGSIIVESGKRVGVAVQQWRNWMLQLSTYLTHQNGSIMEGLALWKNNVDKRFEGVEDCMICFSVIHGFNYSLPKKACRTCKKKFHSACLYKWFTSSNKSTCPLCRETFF

[6] = biological target: T6, HeLa cell extract proteins (Homo sapiens, UniProt P31153)
T6 construct: endogenous in cells; host or cells: HeLa cell extract
T6 sequence (P31153 whole entry): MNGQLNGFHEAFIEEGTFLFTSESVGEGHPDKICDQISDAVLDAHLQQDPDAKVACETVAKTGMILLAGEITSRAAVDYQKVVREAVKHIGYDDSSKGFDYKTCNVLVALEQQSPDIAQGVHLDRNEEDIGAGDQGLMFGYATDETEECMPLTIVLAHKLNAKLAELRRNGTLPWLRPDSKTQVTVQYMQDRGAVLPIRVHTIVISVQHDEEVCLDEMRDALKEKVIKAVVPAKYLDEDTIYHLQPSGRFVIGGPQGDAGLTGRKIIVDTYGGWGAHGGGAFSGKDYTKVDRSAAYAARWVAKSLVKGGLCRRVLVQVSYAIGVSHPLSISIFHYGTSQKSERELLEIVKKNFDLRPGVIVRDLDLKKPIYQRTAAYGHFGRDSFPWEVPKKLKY

[7] = biological target: T7, HeLa cell extract proteins (Homo sapiens, UniProt Q96DE0)
T7 construct: endogenous in cells; host or cells: HeLa cell extract
T7 sequence (Q96DE0 whole entry): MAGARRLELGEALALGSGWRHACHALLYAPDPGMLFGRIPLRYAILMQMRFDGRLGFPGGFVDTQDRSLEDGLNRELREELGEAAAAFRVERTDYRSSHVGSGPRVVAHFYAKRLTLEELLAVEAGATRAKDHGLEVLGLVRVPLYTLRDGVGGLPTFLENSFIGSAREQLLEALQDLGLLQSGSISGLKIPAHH

[8] = biological target: T8, HeLa cell extract proteins (Homo sapiens, UniProt P08237)
T8 construct: endogenous in cells; host or cells: HeLa cell extract
T8 sequence (P08237 1-780): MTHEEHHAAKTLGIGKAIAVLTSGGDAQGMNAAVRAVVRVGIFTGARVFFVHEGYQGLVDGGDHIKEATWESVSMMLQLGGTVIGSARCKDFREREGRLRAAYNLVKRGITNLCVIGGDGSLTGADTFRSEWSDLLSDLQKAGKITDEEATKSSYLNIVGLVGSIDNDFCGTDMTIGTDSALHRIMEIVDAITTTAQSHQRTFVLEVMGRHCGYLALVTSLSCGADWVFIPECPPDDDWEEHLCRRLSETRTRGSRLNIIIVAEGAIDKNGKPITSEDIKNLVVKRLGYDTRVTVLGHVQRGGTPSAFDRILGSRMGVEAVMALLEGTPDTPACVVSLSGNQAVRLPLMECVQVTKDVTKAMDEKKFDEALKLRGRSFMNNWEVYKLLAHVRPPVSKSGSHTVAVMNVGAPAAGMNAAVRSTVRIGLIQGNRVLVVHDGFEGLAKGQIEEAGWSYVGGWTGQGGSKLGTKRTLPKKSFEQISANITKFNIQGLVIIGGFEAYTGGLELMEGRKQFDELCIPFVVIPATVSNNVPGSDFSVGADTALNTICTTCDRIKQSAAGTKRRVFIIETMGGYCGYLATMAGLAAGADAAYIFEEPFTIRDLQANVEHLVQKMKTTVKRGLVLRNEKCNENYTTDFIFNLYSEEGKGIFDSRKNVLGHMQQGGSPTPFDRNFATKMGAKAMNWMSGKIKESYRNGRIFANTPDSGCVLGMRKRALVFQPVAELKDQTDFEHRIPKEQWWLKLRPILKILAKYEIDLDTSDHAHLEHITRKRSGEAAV

[9] = biological target: T9, HeLa cell extract proteins (Homo sapiens, UniProt P07814)
T9 construct: endogenous in cells; host or cells: HeLa cell extract
T9 sequence (P07814 whole entry): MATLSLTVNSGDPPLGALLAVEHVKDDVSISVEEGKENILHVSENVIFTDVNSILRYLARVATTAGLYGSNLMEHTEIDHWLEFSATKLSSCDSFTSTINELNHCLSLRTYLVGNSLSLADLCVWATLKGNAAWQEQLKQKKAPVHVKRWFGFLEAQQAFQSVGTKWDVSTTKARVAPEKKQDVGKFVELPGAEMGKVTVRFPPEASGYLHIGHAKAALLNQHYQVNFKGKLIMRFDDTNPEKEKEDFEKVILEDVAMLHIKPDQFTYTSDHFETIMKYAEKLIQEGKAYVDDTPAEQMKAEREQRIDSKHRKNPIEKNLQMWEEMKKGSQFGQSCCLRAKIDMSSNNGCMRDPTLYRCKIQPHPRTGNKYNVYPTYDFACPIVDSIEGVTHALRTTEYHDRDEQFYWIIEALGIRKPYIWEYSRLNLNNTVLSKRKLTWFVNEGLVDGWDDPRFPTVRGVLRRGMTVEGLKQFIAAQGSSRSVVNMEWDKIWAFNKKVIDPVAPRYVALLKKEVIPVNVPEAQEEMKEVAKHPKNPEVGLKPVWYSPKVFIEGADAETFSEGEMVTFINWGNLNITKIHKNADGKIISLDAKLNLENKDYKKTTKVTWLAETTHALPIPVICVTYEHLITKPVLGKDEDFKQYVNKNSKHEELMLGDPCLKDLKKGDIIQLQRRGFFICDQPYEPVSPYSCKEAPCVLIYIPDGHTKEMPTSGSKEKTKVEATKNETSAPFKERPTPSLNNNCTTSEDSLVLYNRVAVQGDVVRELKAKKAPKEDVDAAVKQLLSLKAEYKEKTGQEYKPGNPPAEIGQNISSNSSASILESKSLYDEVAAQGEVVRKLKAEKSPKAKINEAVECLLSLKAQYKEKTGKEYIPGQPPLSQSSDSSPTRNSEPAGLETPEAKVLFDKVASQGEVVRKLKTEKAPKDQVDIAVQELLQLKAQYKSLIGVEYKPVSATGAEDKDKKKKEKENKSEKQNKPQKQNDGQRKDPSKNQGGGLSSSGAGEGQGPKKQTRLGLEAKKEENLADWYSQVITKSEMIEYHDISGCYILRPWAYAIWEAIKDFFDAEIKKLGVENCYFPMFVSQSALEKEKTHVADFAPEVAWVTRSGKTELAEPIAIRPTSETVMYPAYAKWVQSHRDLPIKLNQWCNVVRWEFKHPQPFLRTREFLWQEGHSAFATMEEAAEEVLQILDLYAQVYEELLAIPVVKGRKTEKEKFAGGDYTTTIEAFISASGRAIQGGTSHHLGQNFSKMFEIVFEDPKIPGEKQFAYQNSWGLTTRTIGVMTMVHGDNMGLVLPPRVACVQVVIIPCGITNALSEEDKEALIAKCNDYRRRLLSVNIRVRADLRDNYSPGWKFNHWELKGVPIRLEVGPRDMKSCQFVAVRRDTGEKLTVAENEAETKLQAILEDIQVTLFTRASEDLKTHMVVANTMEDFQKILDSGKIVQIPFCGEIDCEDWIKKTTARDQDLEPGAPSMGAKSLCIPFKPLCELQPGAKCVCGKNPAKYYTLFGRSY

[10] = HeLa, protein EPRS (BI[…]-TRNA SYNTHETASE)

| Compound | fold changes relative to vehicle control ([1]; HeLa, protein ACADVL) | fold changes relative to vehicle control ([2]; HeLa, protein CCNC) | fold changes relative to vehicle control ([3]; HeLa, captured protein RABGGTB) | fold changes relative to vehicle control ([4]; HeLa, captured protein PLSCR1) | fold changes relative to vehicle control ([5]; HeLa, captured protein RNF160) | fold changes relative to vehicle control ([6]; HeLa, protein MAT2A) | fold changes relative to vehicle control ([7]; HeLa, captured protein NUDT16) | fold changes relative to vehicle control ([8]; HeLa, captured protein PFKM) | fold changes relative to vehicle control [9, 10] | fold changes relative to vehicle control ([1]; protein ACADVL, HeLa) | fold changes relative to vehicle control ([2]; captured protein CCNC, HeLa) | fold changes relative to vehicle control ([3]; protein RABGGTB, HeLa) | fold changes relative to vehicle control ([4]; HeLa, protein PLSCR1) | fold changes relative to vehicle control ([5]; captured protein RNF160, HeLa) | fold changes relative to vehicle control ([6]; protein MAT2A, HeLa) | fold changes relative to vehicle control ([7]; captured protein NUDT16, HeLa) | fold changes relative to vehicle control ([8]; captured protein PFKM, HeLa) | fold changes relative to vehicle control ([9]; protein EPRS, HeLa) | also measured |
| --- | --- | --- | --- | --- | --- | --- | --- | --- | --- | --- | --- | --- | --- | --- | --- | --- | --- | --- | --- |
| Nc1nc2c(c(=O)[nH]1)N(C=O)C(CNc1ccc(C(=O)N[C@@H](CCC(=O)O)C(=O)O)cc1)CN2 (stereo partly drawn) [LEU, leucovorin] | 0.98 | 1.13 | 1.01 | 1.01 | 1.1 | 0.99 | 0.93 | 1.01 | 1.11 |  |  |  |  |  |  |  |  |  |  |
| Nc1nc2[nH]cc(CCc3ccc(C(=O)N[C@@H](CCC(=O)O)C(=O)O)cc3)c2c(=O)[nH]1 [PTX, pemetrexed] |  |  |  |  |  |  |  |  |  |  |  |  |  |  |  |  |  |  | fold changes relative to vehicle control [1]: 1.03; fold changes relative to vehicle control [2]: 0.83; fold changes relative to vehicle control [3]: 0.97; fold changes relative to vehicle control [4]: 0.96; fold changes relative to vehicle control [5]: 1.09; fold changes relative to vehicle control [6]: 1.07; fold changes relative to vehicle control [7]: 0.92; fold changes relative to vehicle control [8]: 0.98; fold changes relative to vehicle control [9]: 1.06 |
| CCCCCCOc1ccc(Cc2cnc(N)nc2N)cc1 [compound 1] |  |  |  |  |  |  |  |  |  | 0.96 | 0.89 | 1.07 | 1.02 | 1.01 | 1.21 | 0.62 | 1.15 | 1.06 |  |
| CCCCCCOc1cccc(Cc2cnc(N)nc2N)c1 [compound 2] |  |  |  |  |  |  |  |  |  | 1.29 | 0.9 | 1.01 | 0.86 | 1.08 | 1.55 | 0.93 | 1.2 | 1.25 |  |
| Nc1nc2cccc(-c3ccccc3)c2n1Cc1ccc(Cl)c(Cl)c1 [compound 3] |  |  |  |  |  |  |  |  |  | 0.91 | 0.93 | 1.06 | 0.98 | 1.13 | 1.01 | 1.02 | 1.01 | 1.13 |  |
| NCCOCCOCC(=O)Nc1nc2ncc(CNc3ccc(C(=O)NC(CCC(=O)O)C(=O)O)cc3)nc2c(=O)[nH]1 (stereo not drawn) [compound 6] | 1.22 | 0.94 | 0.91 | 0.96 | 1.17 | 1.16 | 0.84 | 1.02 | 1.19 |  |  |  |  |  |  |  |  |  |  |
| NCCCNc1ccc(C(=O)NC(CCC(=O)O)C(=O)O)cc1 (stereo not drawn) [compound 7] | 0.97 | 0.95 | 1.03 | 1.07 | 1.17 | 1 | 1.02 | 1.02 | 1.09 |  |  |  |  |  |  |  |  |  |  |

Reference: article PMC6199744, “Development of Chemical Proteomics for the Folateome and Analysis of the Kinetoplastid Folateome” (ACS Infectious Diseases, 2018)
